In ChEMBL document CHEMBL5537193, “Multitargeting HDAC Inhibitors Containing a RAS/RAF Protein Interfering Unit” (J Med Chem, 2024):
Blank lines part the entries; values can stand above or below the compound they belong to. The source made the active and inactive calls. The calls are words filed in the database; no cut-off is given here.

Tests used:
L02 = assay: cells; conditions: Homo sapiens, L02, 72 h
Description: Cytotoxicity against human L02 cells assessed as inhibition of cell growth incubated for 72 hrs by MTT assay

NCI-H1975 = assay: cells; conditions: Homo sapiens, NCI-H1975, 72 h
Description: Cytotoxicity against human NCI-H1975 cells assessed as inhibition of cell growth incubated for 72 hrs by MTT assay

A-431 = assay: cells; conditions: Homo sapiens, A-431, 72 h
Description: Cytotoxicity against human A-431 cells assessed as inhibition of cell growth incubated for 72 hrs by MTT assay

MCF7 = assay: cells; conditions: Homo sapiens, MCF7, 72 h
Description: Cytotoxicity against human MCF7 cells assessed as inhibition of cell growth incubated for 72 hrs by MTT assay

A549 = assay: cells; conditions: Homo sapiens, A549, 72 h
Description: Cytotoxicity against human A549 cells assessed as inhibition of cell growth incubated for 72 hrs by MTT assay

SGC-7901 = assay: cells; conditions: Homo sapiens, SGC-7901, 72 h
Description: Cytotoxicity against human SGC-7901 cells assessed as inhibition of cell growth incubated for 72 hrs by MTT assay

HepG2 = assay: cells; conditions: Homo sapiens, HepG2, 72 h
Description: Cytotoxicity against human HepG2 cells assessed as inhibition of cell growth incubated for 72 hrs by MTT assay

K562 = assay: cells; conditions: Homo sapiens, K562, 72 h
Description: Cytotoxicity against human K562 cells assessed as inhibition of cell growth incubated for 72 hrs by MTT assay

HT-29 [1] = assay: Induction of apoptosis in human HT-29 cells incubated for 24 hrs by flow cytometric analysis; assay type: functional, cell-based; conditions: dose 1-4 µM
PANC-1 [2] = assay: Effect on MEK protein expression in human PANC-1 cells at 2 uM incubated for 24 hrs by Western blot analysis; assay type: functional, cell-based
PANC-1 [3] = assay: Effect on alpha-tubulin expression in human PANC-1 cells at 2 uM incubated for 24 hrs by Western blot analysis; assay type: functional, cell-based
HT-29 [4] = assay: Effect on Histone H3 expression in human HT-29 cells at 2 uM incubated for 24 hrs by Western blot analysis; assay type: functional, cell-based
[5] = Metabolic stability in mouse liver microsomes assessed as half-life at 1 uM measured upto 40 mins by LC-MS/MS analysis; assay type: ADME, Microsome
PANC-1 [6] = assay: Induction of apoptosis in human PANC-1 cells assessed as increase in cleaved caspase-9 expression level at 2 uM incubated for 24 hrs by Western blot analysis; assay type: functional, cell-based
[7] = Metabolic stability in human liver microsomes assessed as intrinsic clearance at 1 uM measured upto 40 mins by LC-MS/MS analysis; assay type: ADME, Microsome; conditions: read-out: CLH
PANC-1 [8] = assay: Induction of apoptosis in human PANC-1 cells assessed as increase in Cytochrome C expression level at 2 uM incubated for 24 hrs by Western blot analysis; assay type: functional, cell-based
[9] = Metabolic stability in human liver microsomes assessed as half-life at 1 uM measured upto 40 mins by LC-MS/MS analysis; assay type: ADME, Microsome
HT-29 [10] = assay: cells; conditions: Homo sapiens, HT-29, 72 h
Description: Cytotoxicity against human HT-29 cells assessed as inhibition of cell growth incubated for 72 hrs by MTT assay

HT-29 [11] = assay: Inhibition of MAPK signaling pathway in human HT-29 cells assessed as inhibition of MEK phosphorylation at 2 uM incubated for 24 hrs by Western blot analysis; assay type: cell-based
HT-29 [12] = assay: Cell cycle arrest in human HT-29 cells assessed as accumulation of cells at G2-M phase at 2 uM incubated for 24 hrs by PI/RNase staining based flow cytometric analysis; assay type: functional
HT-29 [13] = assay: Effect on alpha-tubulin expression in human HT-29 cells at 2 uM incubated for 24 hrs by Western blot analysis; assay type: functional, cell-based
PANC-1 [14] = assay: cells; conditions: Homo sapiens, PANC-1, 72 h
Description: Cytotoxicity against human PANC-1 cells assessed as inhibition of cell growth incubated for 72 hrs by MTT assay

PANC-1 [15] = assay: Inhibition of MAPK signaling pathway in human PANC-1 cells assessed as inhibition of C-RAF phosphorylation at Ser338 residue at 2 uM incubated for 24 hrs by Western blot analysis; assay type: cell-based
HT-29 [16] = assay: Induction of apoptosis in human HT-29 cells assessed as apoptotic ratio at 2 uM incubated for 24 hrs by flow cytometric analysis; assay type: functional
HT-29 [17] = assay: Effect on MEK protein expression in human HT-29 cells at 2 uM incubated for 24 hrs by Western blot analysis; assay type: functional, cell-based
HT-29 [18] = assay: Effect on ERK1/2 protein expression in human HT-29 cells at 2 uM incubated for 24 hrs by Western blot analysis; assay type: functional, cell-based
PANC-1 [19] = assay: Induction of apoptosis in human PANC-1 cells assessed as apoptotic cells at 2 uM incubated for 24 hrs by flow cytometric analysis relative to control; assay type: functional
PANC-1 [20] = assay: Inhibition of MAPK signaling pathway in human PANC-1 cells assessed as inhibition of MEK phosphorylation at 2 uM incubated for 24 hrs by Western blot analysis; assay type: cell-based
PANC-1 [21] = assay: Induction of apoptosis in human PANC-1 cells assessed as increase in Bax expression at 2 uM incubated for 24 hrs by Western blot analysis; assay type: functional, cell-based
PANC-1 [22] = assay: Inhibition of MAPK signaling pathway in human PANC-1 cells assessed as inhibition of ERK1/2 phosphorylation at 2 uM incubated for 24 hrs by Western blot analysis; assay type: cell-based
PANC-1 [23] = assay: Induction of apoptosis in human PANC-1 cells assessed as increase in cleaved PARP expression level at 2 uM incubated for 24 hrs by Western blot analysis; assay type: functional, cell-based
PANC-1 [24] = assay: Induction of apoptosis in human PANC-1 cells incubated for 24 hrs by flow cytometric analysis; assay type: functional, cell-based; conditions: dose 1-4 µM
HT-29 [25] = assay: Inhibition of MAPK signaling pathway in human HT-29 cells assessed as inhibition of C-RAF phosphorylation at Ser338 residue at 2 uM incubated for 24 hrs by Western blot analysis; assay type: cell-based
PANC-1 [26] = assay: Effect on RAS protein expression in human PANC-1 cells at 2 uM incubated for 24 hrs by Western blot analysis; assay type: functional, cell-based
PANC-1 [27] = assay: Induction of apoptosis in human PANC-1 cells assessed as increase in cleaved caspase-3 expression level at 2 uM incubated for 24 hrs by Western blot analysis; assay type: functional, cell-based
[28] = Metabolic stability in mouse liver microsomes assessed as intrinsic clearance at 1 uM measured upto 40 mins by LC-MS/MS analysis; assay type: ADME, Microsome; conditions: read-out: CLH
PANC-1 [29] = assay: Cell cycle arrest in human PANC-1 cells assessed as accumulation of cells at G2-M phase at 2 uM incubated for 24 hrs by PI/RNase staining based flow cytometric analysis; assay type: functional
PANC-1 [30] = assay: Effect on ERK1/2 protein expression in human PANC-1 cells at 2 uM incubated for 24 hrs by Western blot analysis; assay type: functional, cell-based
[31] = molecular target: Serine/threonine-protein kinase PLK1 (Homo sapiens, UniProt P53350); assay: Inhibition of PLK1 (unknown origin)
Chain of Serine/threonine-protein kinase PLK1 (P53350 whole entry): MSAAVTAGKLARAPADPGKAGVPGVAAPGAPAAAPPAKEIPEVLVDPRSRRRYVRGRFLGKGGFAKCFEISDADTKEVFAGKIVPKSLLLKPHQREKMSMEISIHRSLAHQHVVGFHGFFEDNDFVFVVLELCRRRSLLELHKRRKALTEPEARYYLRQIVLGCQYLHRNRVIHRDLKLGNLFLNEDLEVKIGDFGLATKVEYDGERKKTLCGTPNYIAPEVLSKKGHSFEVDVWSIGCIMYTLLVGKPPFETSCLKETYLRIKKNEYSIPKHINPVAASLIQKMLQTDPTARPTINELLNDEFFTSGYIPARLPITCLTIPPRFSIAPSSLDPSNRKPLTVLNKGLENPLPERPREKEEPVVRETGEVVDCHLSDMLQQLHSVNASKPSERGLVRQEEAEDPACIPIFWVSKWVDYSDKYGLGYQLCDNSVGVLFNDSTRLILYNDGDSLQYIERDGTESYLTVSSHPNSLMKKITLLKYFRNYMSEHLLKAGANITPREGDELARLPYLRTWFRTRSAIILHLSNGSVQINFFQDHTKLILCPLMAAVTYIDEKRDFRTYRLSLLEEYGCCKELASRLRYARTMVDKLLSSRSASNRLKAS

Histone deacetylase 4 = Histone deacetylase 4 (Homo sapiens, UniProt P56524); assay: Inhibition of HDAC4 (unknown origin)
Chain of Histone deacetylase 4 (P56524 whole entry): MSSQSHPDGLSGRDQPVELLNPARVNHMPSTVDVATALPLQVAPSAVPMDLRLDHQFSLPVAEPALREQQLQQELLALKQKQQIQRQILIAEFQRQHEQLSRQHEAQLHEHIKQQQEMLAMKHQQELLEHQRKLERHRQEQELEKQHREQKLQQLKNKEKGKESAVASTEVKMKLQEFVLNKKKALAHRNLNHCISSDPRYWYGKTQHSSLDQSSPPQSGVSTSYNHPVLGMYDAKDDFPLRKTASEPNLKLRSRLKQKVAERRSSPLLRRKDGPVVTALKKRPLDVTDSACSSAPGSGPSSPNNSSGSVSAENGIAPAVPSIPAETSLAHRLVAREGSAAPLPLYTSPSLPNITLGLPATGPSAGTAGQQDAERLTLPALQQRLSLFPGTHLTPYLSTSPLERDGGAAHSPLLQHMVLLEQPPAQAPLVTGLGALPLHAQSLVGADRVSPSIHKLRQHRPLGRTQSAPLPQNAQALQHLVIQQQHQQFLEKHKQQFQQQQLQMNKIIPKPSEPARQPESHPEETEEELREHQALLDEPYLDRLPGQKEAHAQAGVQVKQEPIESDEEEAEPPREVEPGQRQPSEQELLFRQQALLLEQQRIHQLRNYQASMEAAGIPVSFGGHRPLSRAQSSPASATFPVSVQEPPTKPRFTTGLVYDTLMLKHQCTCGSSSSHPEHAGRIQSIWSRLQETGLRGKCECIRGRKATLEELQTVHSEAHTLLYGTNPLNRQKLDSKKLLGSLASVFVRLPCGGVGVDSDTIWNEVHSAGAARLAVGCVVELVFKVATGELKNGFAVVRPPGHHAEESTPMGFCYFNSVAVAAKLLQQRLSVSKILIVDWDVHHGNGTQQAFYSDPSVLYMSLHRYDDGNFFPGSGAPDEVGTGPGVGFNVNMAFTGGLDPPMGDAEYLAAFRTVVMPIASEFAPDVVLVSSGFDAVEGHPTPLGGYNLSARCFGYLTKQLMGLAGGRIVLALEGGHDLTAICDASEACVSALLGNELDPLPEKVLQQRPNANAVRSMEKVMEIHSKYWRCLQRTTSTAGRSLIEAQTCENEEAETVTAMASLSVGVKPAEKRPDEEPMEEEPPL

PANC-1 [32] = assay: Effect on Histone H3 expression in human PANC-1 cells at 2 uM incubated for 24 hrs by Western blot analysis; assay type: functional, cell-based
HT-29 [33] = assay: Inhibition of MAPK signaling pathway in human HT-29 cells assessed as inhibition of ERK1/2 phosphorylation at 2 uM incubated for 24 hrs by Western blot analysis; assay type: cell-based
[34] = Metabolic stability in rat liver microsomes assessed as half-life at 1 uM measured upto 40 mins by LC-MS/MS analysis; assay type: ADME, Microsome
MV4-11 = assay: cells; conditions: Homo sapiens, MV4-11, 72 h
Description: Cytotoxicity against human MV4-11 cells assessed as inhibition of cell growth incubated for 72 hrs by MTT assay

Histone deacetylase 9 = Histone deacetylase 9 (Homo sapiens, UniProt Q9UKV0); assay: Inhibition of HDAC9 (unknown origin)
Chain of Histone deacetylase 9 (Q9UKV0 whole entry): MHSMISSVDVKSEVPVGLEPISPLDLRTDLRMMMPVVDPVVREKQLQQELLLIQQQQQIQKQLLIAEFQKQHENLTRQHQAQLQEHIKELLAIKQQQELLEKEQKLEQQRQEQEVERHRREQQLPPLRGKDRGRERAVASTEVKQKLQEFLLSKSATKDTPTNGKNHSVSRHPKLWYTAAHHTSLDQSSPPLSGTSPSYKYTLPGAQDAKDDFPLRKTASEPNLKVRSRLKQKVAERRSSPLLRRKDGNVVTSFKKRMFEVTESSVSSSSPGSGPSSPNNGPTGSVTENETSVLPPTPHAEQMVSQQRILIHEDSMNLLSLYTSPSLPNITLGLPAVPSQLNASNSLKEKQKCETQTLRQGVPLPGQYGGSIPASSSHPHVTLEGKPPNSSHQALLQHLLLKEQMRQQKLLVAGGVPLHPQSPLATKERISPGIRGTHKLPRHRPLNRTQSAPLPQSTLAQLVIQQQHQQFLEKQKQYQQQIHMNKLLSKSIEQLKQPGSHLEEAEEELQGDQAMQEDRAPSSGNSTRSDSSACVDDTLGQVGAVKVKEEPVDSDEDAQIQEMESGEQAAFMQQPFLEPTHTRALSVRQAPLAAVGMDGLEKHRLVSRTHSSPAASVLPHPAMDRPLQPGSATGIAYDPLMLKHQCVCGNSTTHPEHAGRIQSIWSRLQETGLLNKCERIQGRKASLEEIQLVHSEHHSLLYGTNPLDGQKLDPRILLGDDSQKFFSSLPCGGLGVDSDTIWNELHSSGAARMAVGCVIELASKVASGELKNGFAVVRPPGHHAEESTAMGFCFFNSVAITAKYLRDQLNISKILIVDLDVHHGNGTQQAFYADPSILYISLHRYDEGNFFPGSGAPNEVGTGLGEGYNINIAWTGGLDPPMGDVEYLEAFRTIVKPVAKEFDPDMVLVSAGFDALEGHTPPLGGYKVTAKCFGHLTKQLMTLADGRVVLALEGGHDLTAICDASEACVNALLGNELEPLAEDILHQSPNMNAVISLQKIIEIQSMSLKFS

HT-29 [35] = assay: Effect on RAS protein expression in human HT-29 cells at 2 uM incubated for 24 hrs by Western blot analysis; assay type: functional, cell-based
[36] = Metabolic stability in rat liver microsomes assessed as intrinsic clearance at 1 uM measured upto 40 mins by LC-MS/MS analysis; assay type: ADME, Microsome; conditions: read-out: CLH

Compound: COc1cc(OC)c(/C=C/S(=O)(=O)Cc2ccc(OC)c(NCCC(=O)NO)c2)c(OC)c1
IC50 (L02): > 40 µM
IC50 (NCI-H1975): 3.95 µM
IC50 (A-431): 2.03 µM
IC50 (MCF7): 5.45 µM
IC50 (A549): 9.35 µM
IC50 (SGC-7901): 5.46 µM
IC50 (HepG2): 15 µM

Compound: COc1cc(OC)c(/C=C/S(=O)(=O)Cc2ccc(OC)c(NC(=O)CCCCC(=O)Nc3ccccc3N)c2)c(OC)c1
IC50 (L02): > 40 µM
IC50 (NCI-H1975): 18.8 µM
IC50 (A-431): 20.6 µM
IC50 (MCF7): 11.7 µM
IC50 (A549): 16.7 µM
IC50 (SGC-7901): 17.2 µM
IC50 (HepG2): 27.4 µM

Compound: COc1cc(OC)c(/C=C/S(=O)(=O)Cc2ccc(OC)c(NC(=O)CCCCC(=O)NO)c2)c(OC)c1
IC50 (L02): > 40 µM
IC50 (NCI-H1975): 9.48 µM
IC50 (A-431): 18.8 µM
IC50 (MCF7): 9.68 µM
IC50 (A549): 8.56 µM
IC50 (SGC-7901): 12.3 µM
IC50 (HepG2): 29.1 µM

Compound: COc1cc(OC)c(/C=C/S(=O)(=O)Cc2ccc(OC)c(NC(=O)CCC(=O)NO)c2)c(OC)c1
IC50 (L02): > 40 µM
IC50 (K562): 0.02 µM
Activity (HT-29 [1]): Dose-Dependent Effect
Activity (PANC-1 [2]): inactive
Activity (PANC-1 [3]): inactive
Activity (HT-29 [4]): inactive
IC50 (NCI-H1975): 0.08 µM
half-life at 1 µM [5]: 14.4 min
Activity (PANC-1 [6]): Active
CLint scaled at 1 µM [7]: 36.2 mL/min/kg
Activity (PANC-1 [8]): Active
half-life at 1 µM [9]: 48 min
IC50 (HT-29 [10]): 0.12 µM
inhibition (HT-29 [11]): Active
Activity (HT-29 [12]): Active
Activity (HT-29 [13]): inactive
IC50 (PANC-1 [14]): 0.11 µM
inhibition (PANC-1 [15]): Active
Activity (HT-29 [16]): 46.2%
Activity (HT-29 [17]): inactive
Activity (HT-29 [18]): inactive
Activity (PANC-1 [19]): 55.1%
inhibition (PANC-1 [20]): Active
Activity (PANC-1 [21]): Active
inhibition (PANC-1 [22]): Active
Activity (PANC-1 [23]): Active
Activity (PANC-1 [24]): Dose-Dependent Effect
inhibition (HT-29 [25]): Active
Activity (PANC-1 [26]): inactive
Activity (PANC-1 [27]): Active
IC50 (A-431): 0.33 µM
CLint scaled at 1 µM [28]: 379 mL/min/kg
Activity (PANC-1 [29]): Active
Activity (PANC-1 [30]): inactive
IC50 [31]: 0.0205 µM
inhibition [31]: Dose-Dependent Effect
IC50 (Histone deacetylase 4): 0.0841 µM
IC50 (MCF7): 0.24 µM
Activity (PANC-1 [32]): inactive
inhibition (HT-29 [33]): Active
IC50 (A549): 0.21 µM
half-life at 1 µM [34]: 35.4 min
IC50 (MV4-11): 0.15 µM
IC50 (SGC-7901): 0.26 µM
IC50 (HepG2): 1.68 µM
IC50 (Histone deacetylase 9): 0.0913 µM
Activity (HT-29 [35]): inactive
CLint scaled at 1 µM [36]: 70.2 mL/min/kg

Further lines, with some results ahead:

IC50 (NCI-H1975): 8.45 µM
IC50 (A-431): 4.11 µM
IC50 (MCF7): 17.7 µM
IC50 (A549): 35.5 µM
IC50 (SGC-7901): 31.9 µM
IC50 (HepG2): 18.6 µM
Compound: COc1cc(OC)c(/C=C/S(=O)(=O)Cc2ccc(OC)c(NC(=O)CCCC(=O)Nc3ccccc3N)c2)c(OC)c1
IC50 (L02): > 40 µM

IC50 (NCI-H1975): 5.11 µM
IC50 (A-431): 8.69 µM
IC50 (MCF7): 12.6 µM
IC50 (A549): 11.3 µM
IC50 (SGC-7901): 13.2 µM
IC50 (HepG2): 7.3 µM
Compound: COc1cc(OC)c(/C=C/S(=O)(=O)Cc2ccc(OC)c(NCCC(=O)Nc3ccccc3N)c2)c(OC)c1
IC50 (L02): > 40 µM

IC50 (NCI-H1975): 2.58 µM
IC50 (A-431): 1.26 µM
IC50 (MCF7): 13.2 µM
IC50 (A549): 7.41 µM
IC50 (SGC-7901): 6.6 µM
IC50 (HepG2): 12.3 µM
Compound: COc1cc(OC)c(/C=C/S(=O)(=O)Cc2ccc(OC)c(NC(=O)CCC(=O)Nc3ccccc3N)c2)c(OC)c1
IC50 (L02): > 40 µM
